How the values were obtained:
Format in all cases: cell-based
[1] = system: S. capitis ATCC ® 27841 ™; assay: MIC, broth microdilution, S. capitis; conditions: ≥85% inhibition of OD
Description: (§1) Our skin microbiome houses billions of microbes, many of which are commensal and beneficial, however in some instances can trigger harmful skin inflammation. The potential for compounds to promote a healthy skin microbiome by targeting the “bad” bugs and not harming the “good” bugs is an emerging field of study in dermatology. The purpose of this study was to evaluate the antibacterial activity of the Chia seed extract composition of Example 14 compared to control Doxycycline applied in vitro to planktonic bacteria categorized as “good” (M. luteus ATCC® 4698™, S. hominis ATCC® 27847™, S. warneri ATCC® 27836™, S. epidermidis ATCC® 12228™, S. capitis ATCC®27841™, S. simulans ATCC® 27850™) and another six which are categorized as “bad” (S. aureus ATCC™ 29213™, S. aureus MRSA ATCC® 33592™, S. pyogenes ATTC® 19615™, C. acnes ATCC™ 6919™, C. xerosis ATCC® 373™, C. granulosum ATCC® 25564™).
(§2) Test agents and control were stored at recommended storage temperature until use. Minimum Inhibitory Concentrations (MIC) were determined in vitro using the broth microdilution method. […] Antimicrobial activity was defined as the lowest concentration of each test material that inhibited ≥85% of the optical density (OD) measured in broth media. […]

[2] = system: S. aureus MRSA ATCC ® 33591 ™; assay: MIC, broth microdilution, S. aureus MRSA; conditions: ≥85% inhibition of OD
[3] = system: S. pyogenes ATCC ® 19615 ™; assay: MIC, broth microdilution, S. pyogenes; conditions: ≥85% inhibition of OD
Description: as §1, §2

[4] = system: “bad” strains; assay: MIC, broth microdilution, summary over “bad” strains; conditions: range over the six “bad” strains
Description: as §1, §2

[5] = system: S. epidermidis ATCC ® 12228 ™; assay: MIC, broth microdilution, S. epidermidis; conditions: ≥85% inhibition of OD
Description: as §1, §2

[6] = system: C. acnes ATCC ® 6919 ™; assay: MIC, broth microdilution, C. acnes; conditions: ≥85% inhibition of OD
Description: as §1, §2

[7] = system: M. luteus ATCC ® 4698 ™; assay: MIC, broth microdilution, M. luteus; conditions: ≥85% inhibition of OD
Description: as §1, §2

[8] = system: S. warneri ATCC ® 27836 ™; assay: MIC, broth microdilution, S. warneri; conditions: ≥85% inhibition of OD
Description: as §1, §2

[9] = system: S. hominis ATCC ® 27847 ™; assay: MIC, broth microdilution, S. hominis; conditions: ≥85% inhibition of OD
Description: as §1, §2

[10] = system: “good” skin bacteria strains; assay: MIC, broth microdilution, summary over “good” strains; conditions: range over the six “good” strains
Description: as §1, §2

[11] = system: C. xerosis ATCC ® 373 ™; assay: MIC, broth microdilution, C. xerosis; conditions: ≥85% inhibition of OD
Description: as §1, §2

[12] = system: S. aureus ATCC ® 29213 ™; assay: MIC, broth microdilution, S. aureus; conditions: ≥85% inhibition of OD
Description: as §1, §2

[13] = system: C. granulosum ATCC ® 25564 ™; assay: MIC, broth microdilution, C. granulosum; conditions: ≥85% inhibition of OD
Description: as §1, §2

[14] = system: S. simulans ATCC ® 27850 ™; assay: MIC, broth microdilution, S. simulans; conditions: ≥85% inhibition of OD
Description: as §1, §2

Substance: Doxycycline hyclate
- MIC [1]: (0.00007) % w/v
- MIC ([1]; mean ± StDev of 3 experiments): 0.65 ± 0.23 µg/mL
- MIC [2]: (0.0020) % w/v
- MIC ([2]; mean ± StDev of 3 experiments): 20.83 ± 7.22 µg/mL
- MIC [3]: (0.00001) % w/v
- MIC ([3]; mean ± StDev of 3 experiments): 0.11 ± 0.07 µg/mL
- MIC for “bad” strains [4]: 0.1 to 20.8 µg/mL
- MIC [5]: (0.00013) % w/v
- MIC ([5]; mean ± StDev of 3 experiments): 1.30 ± 0.45 µg/mL
- MIC [6]: (0.00003) % w/v
- MIC ([6]; mean ± StDev of 3 experiments): 0.26 ± 0.11 µg/mL
- MIC [7]: (0.00001) % w/v
- MIC ([7]; mean ± StDev of 3 experiments): 0.10 ± 0.00 µg/mL
- MIC [8]: (0.00003) % w/v
- MIC ([8]; mean ± StDev of 3 experiments): 0.31 ± 0.41 µg/mL
- MIC [9]: (0.0010) % w/v
- MIC ([9]; mean ± StDev of 3 experiments): 10.42 ± 3.61 µg/mL
- MIC for “good” strains [10]: 0.1 to 10.4 µg/mL
- MIC [11]: (0.00003) % w/v
- MIC ([11]; mean ± StDev of 3 experiments): 0.33 ± 0.11 µg/mL
- MIC [12]: (0.00002) % w/v
- MIC ([12]; mean ± StDev of 3 experiments): 0.20 ± 0.00 µg/mL
- MIC [13]: (0.00001) % w/v
- MIC ([13]; mean ± StDev of 3 experiments): 0.13 ± 0.06 µg/mL
- MIC [14]: (0.00013) % w/v
- MIC ([14]; mean ± StDev of 3 experiments): 1.04 ± 0.45 µg/mL

Reference: patent publication US12599642B2, “Compositions derived from Salvia hispanica seeds” (Signum Biosciences, priority 2020, dated 2026)
